Assay results as given in PubChem BioAssay AID463074 (Broad Institute, 2010).
Values joined by “and” are separate entries in the source; they are usually repeats but may differ in a detail not shown here. Equal values may be shown once. Active and inactive are the calls of the source.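 The calls were made as follows: active = AC50 no more than tenfold above the top dose tested, or full inhibition at every dose with a flat fit (cut at about 19 µM in these data); inconclusive = flat curve fit with inhibition between 30% and 70%, or poor fit; inactive = AC50 more than tenfold above the top dose tested.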

Test system: HMLE_sh_eGFP viability, CellTiter-Glo luminescence, 72 h
Assay: cytotoxicity in HMLE control line with eGFP shRNA, dose response, counter-screen for HMLE_sh_ECad selective toxicity project, cell-based, HMLE_sh_eGFP, luminescence (AID 463074);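 also: counterscreen control line to flag general toxicity for the HMLE_sh_ECad screen; potency for loss of viability as luminescence drops below DMSO wells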

Structure (SMILES)	AC50
COc1ccc(C)cc1NC(=O)c1ccccc1NS(=O)(=O)c1ccc(Cl)s1	7.89 µM
COC(=O)c1ccc(/C=C/c2c(-c3ccsc3)oc3ccc(N4CCOCC4)cc23)cc1	6.37 µM
CC/C(=C\C1CCCCC1)C(NP(=O)(c1ccccc1)c1ccccc1)c1ccccc1 (stereo not drawn)	3.49 µM
CCCc1nc(NC2CCCCC2)c(C#N)c2c1COC(C)(C)C2	7.68 µM
COc1ccc(-c2cc(C3CCN(c4ccc(C(C)=O)cc4[N+](=O)[O-])CC3)[nH]n2)cc1	8.83 µM
CCCCCc1cc(=O)oc2c(C(CCN(CC)CC)c3cc(OC)c(OC)c(OC)c3)c(OC)cc(OC)c12 (stereo not drawn)	14.3 µM
C=CCSC(=C(C#N)C#N)c1cc2c([nH]1)CCCC2	13.5 µM
S=C1NC[C@H](Cc2ccccc2)N1CCCCC1CCCCC1	4.19 µM
COc1ccc(-c2sc3ccccc3c2-c2ccc(OCCN3CCOCC3)cc2)cc1	1.51 µM
O=C(/C=C/c1ccc(Cl)cc1)c1ccc([N+](=O)[O-])o1	2.19 µM
Cc1ccc(NS(=O)(=O)c2ccc(Cl)c(C(=O)Nc3ccccc3-c3nc4ccccc4[nH]3)c2)cc1C	1.48 µM
O=C(/C=C\c1ccccc1)NCC(=O)N/N=C/c1ccc(O)cc1O	12 µM
CCCCCCSc1ccc(-c2nc3ccccn3c2NCCCC)cc1	6.98 µM
CCN1CCN(Cc2ccc(NC(=O)c3cc(NC(=O)c4cncc(-c5cccs5)c4)cc(OC)c3)cc2C(F)(F)F)CC1	3.52 µM
OCCCNc1cc(-c2ccccc2)nc2cc(-c3ccc(F)cc3)nn12	9.12 µM
COC(=O)c1ccc(CN(c2ccc(C(=O)O)c(O)c2)S(=O)(=O)c2ccc(Cl)c([N+](=O)[O-])c2)cc1	3.5 µM
O=S(=O)(Nc1ccc(-c2nnc(SCc3ccc(Cl)cc3)o2)cc1)c1ccccc1	3.6 µM
CC(C)N(C(=O)CSc1nc2ccccc2n1-c1ccccc1)C(C)C	7.62 µM
C[C@@H]1CC[C@H]2C(=O)N3[C@@H](CC[C@@H](C)[C@@H]3c3ccc(Br)cc3)C(=O)N2[C@H]1c1ccc(Br)cc1	4.41 µM
Nc1c(C(=O)Nc2ccccc2)c2nc3ccccc3nc2n1CCCN1CCOCC1	6.77 µM
COc1ccc(OC)c(/C=C2\S/C(=N/NC(=O)c3ccc4ccccc4c3)NC2=O)c1	9.71 µM
Cc1ccc(C)c(N2CCN(C(=O)c3ccc4c(c3)c(C)c(C)n4C)CC2)c1	9.07 µM
COc1ccc(C(=O)C2CCCN(Cc3cc(C)c(O)c(C)c3)C2)c(OC)c1 (stereo not drawn)	4.9 µM
FC(F)(F)c1nnc(-c2ccccc2)nc1Sc1ccc(Cl)cc1	6.48 µM
CN1CCN(CCCNC(=O)c2ccc(/C=C3\Oc4ccccc4N(Cc4ccc(Cl)cc4)C3=O)cc2)CC1	3.31 µM
N#Cc1c(-c2ccccc2)cc(-c2ccccc2)nc1SCCC(=O)O	2.41 µM

Structure (SMILES)	AC50
COc1ccc(-c2c(-c3cc(OC)cc(OC)c3)n(C)c3ccc(-c4cc(F)cc(OC)c4)cc23)cc1	> 19.5 µM (inactive)
CN(C)S(=O)(=O)Oc1cccc(C(=O)Nc2ccc(Cl)c(Cl)c2)c1	6.22 µM
O=C(O)c1cccc(N/N=C(\N=Nc2ccccc2)c2ccccc2)c1	4.25 µM
COc1ccc(-c2sc3ccc(OC)cc3c2C#Cc2ccccn2)cc1	5.88 µM
O=C1CC(c2cc(Br)ccc2F)c2cc3c(cc2N1)CCC3 (stereo not drawn)	0.196 µM
CNC(=S)N/N=C/c1cn(Cc2ccc(C)cc2)c2ccccc12	5.94 µM
Cc1cc(C)cc(CC(Cc2nc3ccccc3[nH]2)c2nc3ccccc3[nH]2)c1 (stereo not drawn)	7.82 µM
CCCCCCCCOC(=O)c1c(CSC(=N)N)n(C)c2cc(Br)c(OC(C)=O)cc12	3.72 µM
CC[C@H]1CC2CN3CCc4c([nH]c5c([C@H]6C[C@H]7[C@H](CC)CN(C)[C@@H](Cc8c6[nH]c6ccccc86)[C@H]7C(=O)OC)c(OC)ccc45)C(C(=O)OC)(C2)C13	4.25 µM
COc1cc(NS(=O)(=O)c2ccc(N/C=C(\C#N)c3nc4cc(Cl)ccc4o3)cc2)nc(OC)n1	7.54 µM
CC(C)n1cnc2c(NCc3ccccc3)cc(N[C@H](C)CO)cc21	7.36 µM
O=C(NCCc1c[nH]c2ccccc12)C(=O)c1c[nH]c2ccccc12	6.75 µM
CCSc1nnc(-c2sc3nnc(-c4ccccc4)c(-c4ccccc4)c3c2N)o1	0.539 µM
CCCc1nc2ccccc2c(C(=O)OCC(=O)N2CCc3ccccc32)c1CC	3.97 µM
COc1cccc(C(=O)/C=C/c2ccc(N3CCCCC3)c([N+](=O)[O-])c2)c1	6.69 µM
COc1ccc(-c2csc(NC(=S)NC(=O)/C=C/c3ccco3)n2)cc1Br	1.98 µM
c1ccc(-c2c3ccccc3nc3[nH]c4ccccc4c23)cc1	2.95 µM
Cc1ccc(S(=O)(=O)Nc2ccc(C(OC(=O)c3ccccc3[N+](=O)[O-])(C(F)(F)F)C(F)(F)F)cc2)cc1	7.19 µM
CCN(CC)CCSc1nnc2c3ccccc3n(Cc3ccccc3)c2n1	2.47 µM
CCCc1[nH]c2ccc(C#N)cc2c1CCC	4.14 µM
CCCn1c(SCC#N)nc2c(c1=O)C1(CCCC1)Cc1ccccc1-2	1.52 µM
COc1ccc(-c2sc3ccc(N4CCOCC4)cc3c2C#CCCO)cc1	4.73 µM
CCCCn1c(-c2cccc(C)c2)nc2cc3[nH]c(=O)c(C(C)C)nc3cc21	4.64 µM
CC(=O)c1ccc(N2CCN(c3ccc(S(=O)(=O)NCCCN(C)C)cc3[N+](=O)[O-])CC2)cc1	2.92 µM
Cc1cc([N+](=O)[O-])ccc1-c1ccc(/C=N/NC(=O)c2ccc(Br)o2)o1	3.49 µM
COc1ccccc1NC(=O)c1c(Nc2ccccc2F)sc(C(=O)Nc2cccc(Cl)c2)c1N	2.95 µM

Structure (SMILES)	AC50
CCc1c(C)sc2nc(C(C)C)nc(SCC(=O)N3CCc4ccccc4C3)c12	4.22 µM
CC/C(=C(\c1ccccc1)c1ccc(OCCN(C)C)cc1)c1ccccc1	6.69 µM and 6.32 µM
C/C(N)=C(/C#N)C(=O)COC(=O)c1cc(-c2ccc(C)cc2)nc2ccccc12	15 µM
CN(C)CCOc1ccc(-c2c(-c3ccccc3)sc3ccccc23)cc1	2.53 µM
CC(C)Cn1c(O)c(N=NC(=O)c2cccc(S(=O)(=O)N3CCCCC3)c2)c2ccccc21	1.57 µM
O=C1C=CC(=O)N1c1ccc(OC(F)F)cc1	11.9 µM
Cc1cc([N+](=O)[O-])nn1CC(=O)N/N=C/c1ccc(O)cc1O	5.4 µM
CCN(CC)S(=O)(=O)c1ccc(NC(=O)Nc2cccc(C(F)(F)F)c2)cc1	3.54 µM
Cc1cc(C)cc(-n2c(C)cc(/C=C3\C(=N)N4N=C(CC(C)C)SC4=NC3=O)c2C)c1	4.82 µM
O=C(Nc1cccc(C(F)(F)F)c1)Nc1ccc(N2CCCC2)c(S(=O)(=O)Nc2ccccc2Cl)c1	1.33 µM
CCCn1c(=O)c(C(=O)NNS(=O)(=O)c2ccc(Cl)cc2)c(O)c2ccccc21	2.03 µM
COc1ccc(-c2cc(C(=O)N3CC4(C)CC3CC(C)(C)C4)no2)cc1OC (stereo not drawn)	10.6 µM
CC(C)C[C@H]1CN=C(Nc2ccccc2)N1CC1CCC(C(C)(C)C)CC1 (stereo partly drawn)	5.34 µM
CC(C)(C)OC(=O)[C@H](Cc1ccccc1)NC(=O)c1[nH]cnc1C(=O)Nc1ccc(Cl)cc1	3.92 µM
O=C(CCSc1nc2ccccc2s1)N/N=C/c1c(O)ccc2ccccc12	16.2 µM
COc1ccc(-c2sc3cc(OC)c(OC)cc3c2C#CC2(O)CCCCC2)cc1	5.19 µM
O=C(c1ccccc1)c1nn(-c2ccc(Cl)cc2)c(=O)cc1C(F)(F)F	3.68 µM
O=[N+]([O-])c1cc(C(F)(F)F)ccc1NCCNC(=S)Nc1ccc(Cl)cc1	5.24 µM
CCOC(=O)[C@@H]1[C@H]2COc3cc(OC)ccc3[C@H]2N2C(=O)N(c3ccc(C(F)(F)F)cc3)C(=O)[C@]12C	4.62 µM
COc1cccc(C(=O)Nc2ccc(C3CC3(Cl)Cl)cc2)c1 (stereo not drawn)	16.4 µM
C(=N\Nc1ncnc2sc3c(c12)CCC3)/c1cccs1	7.4 µM
Cn1cccc1-c1nc2ccccc2n1Cc1ccccc1	13.6 µM
COc1ccc(C2c3c(ncn(Cc4ccco4)c3=N)Oc3ccc4ccccc4c32)cc1 (stereo not drawn)	7.79 µM
CCCCc1ccc(NC(=O)Nc2cc(C)nn2C)cc1	2.09 µM
O=C(/C=C/c1ccc2c(c1)OCCCO2)c1ccc2ccccc2c1O	12 µM
Cc1c(CCOC(=O)CC23CC4CC(CC(C4)C2)C3)sc[n+]1CC(=O)c1ccc(Br)cc1	2.6 µM

Structure (SMILES)	AC50
O=C(Nc1ccccc1)Nc1ccc(O)c2ccccc12	3.94 µM
Cc1cc(Br)c(OCc2ccc(C(=O)N/N=C/c3ccc[nH]3)cc2)c(Br)c1	1.32 µM
CC(=O)Oc1c(Cl)cc(Cl)cc1/C=C/c1ccc2ccccc2n1	2.86 µM
CCC1=NN(C(=O)c2cccc(Br)c2)C(O)(c2ccc(Br)cc2)C1 (stereo not drawn)	1.37 µM
CCOc1cc2c(cc1OCC)-n1cccc1C(c1ccc(C(C)C)cc1)NC2 (stereo not drawn)	6.13 µM
CC(C)(c1ccccc1)c1ccc(OCCN2CCCC2)cc1	0.903 µM
CC(C)(Oc1ccc(Cl)cc1)C(=O)NC1=NN(c2ccccc2)C(=O)C1	6.11 µM
CCOc1ccc(OCC(=O)N(CCC2=CCCCC2)c2c(N)n(Cc3ccccc3)c(=O)[nH]c2=O)cc1	6.29 µM
Cc1ccc(C)c(NC(=O)/C(C#N)=C/c2cn(CC(=O)NCc3ccco3)c3ccccc23)c1	> 19.5 µM (inactive)
Cn1cccc1/C=C1\SC(=S)N(Nc2ccccc2)C1=O	2.31 µM
Cc1ccc(N2C(=O)NC(=O)/C(=C/C=C/c3ccco3)C2=O)cc1	3.29 µM
CCOC(=O)c1c(NC(=O)c2nn(CC)cc2Br)sc2c1CCCCC2	1.95 µM
Cc1ccc(F)c(NC(=O)/C(C#N)=C(\O)c2ccc(C(C)(C)C)cc2)c1	8.58 µM
c1ccc(-c2nnc3sc(CN4CCc5ccccc54)cn23)cc1	3.51 µM
Cc1c(C(=O)N(Cc2ccccc2)Cc2cccs2)cnn1-c1ccc(Cl)cc1	1.42 µM
CCc1cc(-c2n[nH]c(C)c2Oc2ccc(C(C)C)cc2)c(O)cc1O	3.65 µM
Sc1nnc(-c2ccc(Cl)cc2)n1Cc1ccccc1	8.62 µM
Cc1ccc(/C=C/C(=O)c2cc(Br)ccc2OC(=O)c2ccco2)cc1	5.92 µM
Cn1nnnc1Sc1ncnc2scc(Br)c12	6.78 µM
Cc1cccc(Nc2nc(N)c([N+](=O)[O-])c(N3CC(C)CC(C)C3)n2)c1 (stereo not drawn)	6.75 µM
CC1CCN(CC(CS(=O)(=O)c2ccc([N+](=O)[O-])cc2)N2CCC(C)CC2)CC1 (stereo not drawn)	6.58 µM
COc1cc(-c2ccc3oc(-c4cccc(C)c4)c(C#CC4(O)CCCCC4)c3c2)cc(OC)c1OC	15.4 µM
Cc1cc(C)cc(NS(=O)(=O)c2ccc3[nH]cc(C(=O)NCc4ccco4)c(=O)c3c2)c1	1.5 µM
Cc1ccc2c(c1)c1c(n2CC(O)CNC2CCCCC2)CCCC1 (stereo not drawn)	8.31 µM
COc1cccc(/C=N/Nc2ncnc(Cl)c2N)c1O	3.29 µM
